Holding throughout (format): biochemical
Assay [1] deals with T1, CjDHAD (dihydroxy-acid dehydratase) (Campylobacter jejuni, UniProt Q9PJ98).
T1 construct: gene ilvD; hexa-histidine tag at the N-terminal, pET-28a
Description: DNPH colorimetric endpoint assay with DHIV, 30-min pre-incubation.

The target of assay [2] is T2, SaDHAD (dihydroxy-acid dehydratase) (Staphylococcus aureus, UniProt Q2FWK7).
T2 construct: gene ilvD; hexa-histidine tag at the N-terminal, pET-28a
The assay is described as above.

Assay [3] deals with T2, SaDHAD (dihydroxy-acid dehydratase). Description: DNPH colorimetric endpoint assay with DHIV, no pre-incubation.
The target in assay [4] is T1, CjDHAD (dihydroxy-acid dehydratase). Described as above.

T2 sequence (Q2FWK7 whole entry): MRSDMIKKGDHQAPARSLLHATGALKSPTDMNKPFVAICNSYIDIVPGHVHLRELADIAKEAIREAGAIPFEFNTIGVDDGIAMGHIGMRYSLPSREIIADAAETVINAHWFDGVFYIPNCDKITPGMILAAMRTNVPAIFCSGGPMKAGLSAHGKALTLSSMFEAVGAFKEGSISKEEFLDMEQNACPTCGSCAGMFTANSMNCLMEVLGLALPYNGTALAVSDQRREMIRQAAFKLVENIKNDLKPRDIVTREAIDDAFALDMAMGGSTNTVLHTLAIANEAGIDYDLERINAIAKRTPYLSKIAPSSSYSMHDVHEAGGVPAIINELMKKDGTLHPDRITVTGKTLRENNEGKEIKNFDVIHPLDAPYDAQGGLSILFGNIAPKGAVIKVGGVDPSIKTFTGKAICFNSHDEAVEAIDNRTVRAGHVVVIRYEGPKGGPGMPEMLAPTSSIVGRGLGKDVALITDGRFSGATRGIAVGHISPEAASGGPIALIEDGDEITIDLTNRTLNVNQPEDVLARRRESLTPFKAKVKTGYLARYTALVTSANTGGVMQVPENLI
T1 sequence (Q9PJ98 whole entry): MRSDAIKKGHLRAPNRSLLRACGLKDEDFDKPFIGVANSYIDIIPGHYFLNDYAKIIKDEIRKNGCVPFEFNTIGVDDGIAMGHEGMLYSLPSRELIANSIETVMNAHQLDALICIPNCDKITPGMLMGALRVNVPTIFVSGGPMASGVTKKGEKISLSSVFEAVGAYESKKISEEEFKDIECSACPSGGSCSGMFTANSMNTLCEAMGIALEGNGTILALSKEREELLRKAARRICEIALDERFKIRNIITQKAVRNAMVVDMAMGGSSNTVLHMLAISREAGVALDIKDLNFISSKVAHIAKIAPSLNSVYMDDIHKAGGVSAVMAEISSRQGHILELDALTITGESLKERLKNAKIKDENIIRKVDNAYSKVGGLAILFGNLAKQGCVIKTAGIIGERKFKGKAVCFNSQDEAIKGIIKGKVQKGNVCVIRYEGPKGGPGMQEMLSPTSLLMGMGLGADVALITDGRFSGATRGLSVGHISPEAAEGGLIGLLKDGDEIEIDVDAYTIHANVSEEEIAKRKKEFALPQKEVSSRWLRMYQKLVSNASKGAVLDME

What is called Ki is the dissociation constant of the complex between target and ligand, obtained from inhibition or displacement. Lower therefore signals higher affinity. As for `CC(C)N(O)C(=O)C(=O)O` [IpOHA], the Ki turned out to be 32.9 µM in assay [1] and 7.8 µM in assay [2].
With `CC(C)=C1CC[C@]23CO[C@H](C2)[C@@](O)(C(=O)O)CC[C@@H]13` [aspterric acid], the Ki amounted to 51.6 µM in assay [3] and 35.1 µM in assay [4].

(Values after PMC9543379, “Dihydroxy‐Acid Dehydratases From Pathogenic Bacteria: Emerging Drug Targets to Combat Antibiotic Resistance” (Chemistry (Weinheim an Der Bergstrasse, Germany), 2022).)
